Test results from the CheMixHub ionic liquid set.
± gives the uncertainty stated by the source.

Assay: xn = mol fraction of the nth substance listed
Settings: for electrical conductivity: 298 K

CC[n+]1ccn(C)c1.F[B-](F)(F)F + C1COCCO1
100 kPa
Settings	viscosity [mPa·s]
293.15 K, x2 = 0	50.5 ± 5.1
298.15 K, x2 = 0.2149	26.8 ± 2.7
303.15 K, x2 = 0	34.5 ± 3.5
303.15 K, x2 = 0.1664	25.1 ± 2.5
303.15 K, x2 = 0.2149	22.7 ± 2.3
303.15 K, x2 = 0.5453	9.3 ± 0.93
313.15 K, x2 = 0.2149	16.9 ± 1.7
323.15 K, x2 = 0	18.6 ± 1.9
323.15 K, x2 = 0.5077	6.59 ± 0.66
323.15 K, x2 = 0.5453	5.93 ± 0.6
333.15 K, x2 = 0.3591	7.8 ± 0.78
333.15 K, x2 = 0.5077	5.42 ± 0.55
353.15 K, x2 = 0.5453	3.52 ± 0.35

CC[n+]1ccn(C)c1.F[B-](F)(F)F + CC1COC(=O)O1
101 kPa
Settings	electrical conductivity [S/m]
x2 = 0.16	1.5 ± 0.12
x2 = 0.83	1.68 ± 0.13
x2 = 0.89	1.46 ± 0.12

CC[n+]1ccn(C)c1.O=S(=O)([N-]S(=O)(=O)C(F)(F)F)C(F)(F)F + CC1COC(=O)O1
101.3 kPa
Settings	viscosity [mPa·s]
288.15 K, x1 = 0.7977	34.2 ± 0.71
293.15 K, x1 = 0.3007	8.42 ± 0.18
293.15 K, x1 = 1	39.06 ± 0.82
298.15 K, x1 = 0.2127	5.58 ± 0.12
298.15 K, x1 = 0.7004	20.1 ± 0.42
303.15 K, x1 = 0.1	3.358 ± 0.071
303.15 K, x1 = 0.4227	8.98 ± 0.19
303.15 K, x1 = 0.7601	18.97 ± 0.4
308.15 K, x1 = 0.4227	7.89 ± 0.16
308.15 K, x1 = 0.6015	12.59 ± 0.26
308.15 K, x1 = 0.7601	16.83 ± 0.35
308.15 K, x1 = 1	23.19 ± 0.48
313.15 K, x1 = 0.7601	14.7 ± 0.31
313.15 K, x1 = 0.8098	16.11 ± 0.34
313.15 K, x1 = 1	19.94 ± 0.42
318.15 K, x1 = 0.3007	4.614 ± 0.097
318.15 K, x1 = 0.6015	9.46 ± 0.2
318.15 K, x1 = 0.7004	11.6 ± 0.24
318.15 K, x1 = 0.9533	16.99 ± 0.35
323.15 K, x1 = 0.6015	8.33 ± 0.17
328.15 K, x1 = 0.2127	3.014 ± 0.063
328.15 K, x1 = 0.4227	5.07 ± 0.11
328.15 K, x1 = 0.5146	6.11 ± 0.13
328.15 K, x1 = 0.7601	9.85 ± 0.21
328.15 K, x1 = 0.7977	10.52 ± 0.22
333.15 K, x1 = 0.1	1.979 ± 0.042
333.15 K, x1 = 0.3007	3.477 ± 0.073
333.15 K, x1 = 0.658	7.31 ± 0.15
333.15 K, x1 = 0.7004	7.92 ± 0.17
338.15 K, x1 = 0.1	1.838 ± 0.039
343.15 K, x1 = 0.5146	4.595 ± 0.096
343.15 K, x1 = 0.7601	6.96 ± 0.15
343.15 K, x1 = 0.7977	7.41 ± 0.15
343.15 K, x1 = 0.8098	7.59 ± 0.16
348.15 K, x1 = 0.1	1.599 ± 0.034
348.15 K, x1 = 0.2127	2.203 ± 0.047
348.15 K, x1 = 0.658	5.39 ± 0.11

CC(=O)[O-].CCC[N+]1(C)CCCC1 + CC#N
101 kPa
Settings	electrical conductivity [S/m]
x2 = 0.75	3.18 ± 0.06
x2 = 0.775	3.51 ± 0.07
x2 = 0.799	3.72 ± 0.07
x2 = 0.825	3.86 ± 0.08
x2 = 0.849	3.9 ± 0.08
x2 = 0.875	3.92 ± 0.08
x2 = 0.9	3.85 ± 0.08
x2 = 0.911	3.75 ± 0.08
x2 = 0.921	3.63 ± 0.07
x2 = 0.94	3.35 ± 0.07

CC(O)C(=O)[O-].CCC[N+]1(C)CCCC1 + CC#N
101 kPa
Settings	electrical conductivity [S/m]
x2 = 0.724	2.67 ± 0.05
x2 = 0.749	2.89 ± 0.06
x2 = 0.801	3.19 ± 0.06
x2 = 0.825	3.33 ± 0.07
x2 = 0.849	3.54 ± 0.07
x2 = 0.873	3.56 ± 0.07
x2 = 0.898	3.5 ± 0.07
x2 = 0.91	3.5 ± 0.07
x2 = 0.921	3.37 ± 0.07
x2 = 0.929	3.24 ± 0.07

CC(O)C(=O)[O-].CCC[N+]1(C)CCCCC1 + CC#N
101 kPa
Settings	electrical conductivity [S/m]
x2 = 0.77	2.16 ± 0.04
x2 = 0.823	2.56 ± 0.05
x2 = 0.832	2.64 ± 0.05
x2 = 0.838	2.76 ± 0.06
x2 = 0.846	2.85 ± 0.06
x2 = 0.851	2.85 ± 0.06
x2 = 0.859	2.88 ± 0.06
x2 = 0.863	2.92 ± 0.06
x2 = 0.869	2.97 ± 0.06
x2 = 0.872	2.98 ± 0.06
x2 = 0.877	2.98 ± 0.06
x2 = 0.881	3.01 ± 0.06
x2 = 0.885	3.03 ± 0.06
x2 = 0.888	3.06 ± 0.06
x2 = 0.891	3.04 ± 0.06
x2 = 0.893	3.06 ± 0.06
x2 = 0.897	3.09 ± 0.06
x2 = 0.9	3.09 ± 0.06
x2 = 0.907	3.09 ± 0.06
x2 = 0.909	3.09 ± 0.06
x2 = 0.92	3.04 ± 0.06
x2 = 0.933	2.92 ± 0.06
x2 = 0.952	2.68 ± 0.05

CCCCCC[P+](CCCC)(CCCC)CCCC.F[B-](F)(F)F + CC#N
viscosity [mPa·s], 100 kPa
Settings	x1 = 0.004011	x1 = 0.008155	x1 = 0.01203	x1 = 0.01615	x1 = 0.01996	x1 = 0.02404	x1 = 0.02792	x1 = 0.03151	x1 = 0.03559	x1 = 0.03974
293.15 K	0.374 ± 0.023	0.398 ± 0.024	0.419 ± 0.025	0.446 ± 0.027	0.47 ± 0.028	0.499 ± 0.03	0.526 ± 0.032	0.554 ± 0.034	0.585 ± 0.036	0.621 ± 0.038
298.15 K	0.357 ± 0.022	0.379 ± 0.023	0.399 ± 0.024	0.423 ± 0.026	0.446 ± 0.027	0.472 ± 0.029	0.497 ± 0.03	0.523 ± 0.032	0.551 ± 0.033	0.585 ± 0.036
303.15 K	0.341 ± 0.021	0.361 ± 0.022	0.38 ± 0.023	0.403 ± 0.024	0.423 ± 0.026	0.448 ± 0.027	0.47 ± 0.028	0.495 ± 0.03	0.521 ± 0.032	0.552 ± 0.034
308.15 K	0.326 ± 0.02	0.345 ± 0.021	0.362 ± 0.022	0.383 ± 0.023	0.403 ± 0.024	0.425 ± 0.026	0.446 ± 0.027	0.469 ± 0.028	0.493 ± 0.03	0.522 ± 0.032
313.15 K	0.313 ± 0.019	0.331 ± 0.02	0.347 ± 0.021	0.366 ± 0.022	0.384 ± 0.023	0.406 ± 0.025	0.425 ± 0.026	0.446 ± 0.027	0.468 ± 0.028	0.495 ± 0.03
318.15 K	0.3 ± 0.018	0.317 ± 0.019	0.332 ± 0.02	0.35 ± 0.021	0.367 ± 0.022	0.387 ± 0.023	0.405 ± 0.025	0.424 ± 0.026	0.445 ± 0.027	0.47 ± 0.029

CC[n+]1ccn(C)c1.F[B-](F)(F)F + CC#N
Settings	viscosity [mPa·s]
293.15 K, 100 kPa, x2 = 0.1787	25.2 ± 2.5
298.15 K, 100 kPa, x2 = 0.8301	1.14 ± 0.12
303.15 K, 101 kPa, x1 = 0.0999	0.71 ± 0.071
303.15 K, 101 kPa, x1 = 0.2	1.31 ± 0.13
303.15 K, 101 kPa, x1 = 0.2977	2.18 ± 0.22
303.15 K, 101 kPa, x1 = 0.3999	3.51 ± 0.35
303.15 K, 101 kPa, x1 = 0.4999	5.29 ± 0.53
303.15 K, 101 kPa, x1 = 0.5991	7.84 ± 0.79
303.15 K, 101 kPa, x1 = 0.7013	11 ± 1.1
303.15 K, 101 kPa, x1 = 0.8003	15.3 ± 1.5
303.15 K, 101 kPa, x1 = 0.9009	21 ± 2.1
303.15 K, 101 kPa, x1 = 1	28 ± 2.8
313.15 K, 100 kPa, x2 = 0.2803	10.5 ± 1.1
313.15 K, 100 kPa, x2 = 0.3682	7.5 ± 0.75
313.15 K, 101 kPa, x1 = 0.0999	0.638 ± 0.064
313.15 K, 101 kPa, x1 = 0.2	1.15 ± 0.12
313.15 K, 101 kPa, x1 = 0.2977	1.89 ± 0.19
313.15 K, 101 kPa, x1 = 0.3999	2.95 ± 0.3
313.15 K, 101 kPa, x1 = 0.4999	4.34 ± 0.44
313.15 K, 101 kPa, x1 = 0.5991	6.21 ± 0.62
313.15 K, 101 kPa, x1 = 0.7013	8.64 ± 0.87
313.15 K, 101 kPa, x1 = 0.8003	11.7 ± 1.2
313.15 K, 101 kPa, x1 = 0.9009	15.6 ± 1.6
313.15 K, 101 kPa, x1 = 1	20.4 ± 2.1
323.15 K, 100 kPa, x2 = 0	18.6 ± 1.9
323.15 K, 100 kPa, x2 = 0.2803	8.36 ± 0.84
323.15 K, 100 kPa, x2 = 0.3682	6.1 ± 0.61
323.15 K, 100 kPa, x2 = 0.7116	1.6 ± 0.16
323.15 K, 101 kPa, x1 = 0.0999	0.575 ± 0.058
323.15 K, 101 kPa, x1 = 0.2	1.02 ± 0.1
323.15 K, 101 kPa, x1 = 0.2977	1.67 ± 0.17
323.15 K, 101 kPa, x1 = 0.3999	2.52 ± 0.25
323.15 K, 101 kPa, x1 = 0.4999	3.64 ± 0.36
323.15 K, 101 kPa, x1 = 0.5991	5.11 ± 0.51
323.15 K, 101 kPa, x1 = 0.7013	6.95 ± 0.7
323.15 K, 101 kPa, x1 = 0.8003	9.17 ± 0.92
323.15 K, 101 kPa, x1 = 0.9009	12 ± 1.2
323.15 K, 101 kPa, x1 = 1	15.3 ± 1.5
333.15 K, 100 kPa, x2 = 0.2803	6.82 ± 0.69
333.15 K, 100 kPa, x2 = 0.7116	1.41 ± 0.14
333.15 K, 101 kPa, x1 = 0.0999	0.522 ± 0.052
333.15 K, 101 kPa, x1 = 0.2	0.917 ± 0.092
333.15 K, 101 kPa, x1 = 0.2977	1.48 ± 0.15
333.15 K, 101 kPa, x1 = 0.3999	2.2 ± 0.22
333.15 K, 101 kPa, x1 = 0.4999	3.13 ± 0.31
333.15 K, 101 kPa, x1 = 0.5991	4.34 ± 0.44
333.15 K, 101 kPa, x1 = 0.7013	5.76 ± 0.58
333.15 K, 101 kPa, x1 = 0.8003	7.47 ± 0.75
333.15 K, 101 kPa, x1 = 0.9009	9.51 ± 0.96
333.15 K, 101 kPa, x1 = 1	12.1 ± 1.2
343.15 K, 100 kPa, x2 = 0.3682	4.28 ± 0.43
343.15 K, 100 kPa, x2 = 0.7116	1.26 ± 0.13
343.15 K, 100 kPa, x2 = 0.8301	0.719 ± 0.072
